Experiments:
Experiment in all cases: relative viability (nuclei count vs DMSO), 5 days (fraction); higher = more cells survive
NCI-H1651 = test system: NCI-H1651
In short: (§1)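 Lung cancer cell lines, seeded in 1536-well plates, were treated the following day by pin tool with a single drug or with five library-drug doses (not always all listed) in √10 steps on top of a fixed anchor-drug dose. Cells were fixed and nuclei stained in one step after 5 days, and nuclei were counted. Relative viability is the nuclei count for treated wells divided by that for vehicle wells, reported as medians of duplicate plates.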

SK-MES-1 = test system: SK-MES-1
In short: as §1

NCI-H1395 = test system: NCI-H1395
In short: as §1

LC-2-ad = test system: LC-2-ad
In short: as §1

PC-3 [JPC-3] = test system: PC-3 [JPC-3]
In short: as §1

NCI-H2342 = test system: NCI-H2342
In short: as §1

NCI-H1755 = test system: NCI-H1755
In short: as §1

NCI-H2228 = test system: NCI-H2228
In short: as §1

NCI-H1793 = test system: NCI-H1793
In short: as §1

NCI-H1437 = test system: NCI-H1437
In short: as §1

EMC-BAC-2 = test system: EMC-BAC-2
In short: as §1

NCI-H2347 = test system: NCI-H2347
In short: as §1

EKVX = test system: EKVX
In short: as §1

NCI-H1944 = test system: NCI-H1944
In short: as §1

NCI-H1915 = test system: NCI-H1915
In short: as §1

NCI-H2087 = test system: NCI-H2087
In short: as §1

LK-2 = test system: LK-2
In short: as §1

CAL-12T = test system: CAL-12T
In short: as §1

LXF-289 = test system: LXF-289
In short: as §1

NCI-H661 = test system: NCI-H661
In short: as §1

NCI-H2085 = test system: NCI-H2085
In short: as §1

SK-LU-1 = test system: SK-LU-1
In short: as §1

COR-L 105 = test system: COR-L 105
In short: as §1

H3255 = test system: H3255
In short: as §1

NCI-H522 = test system: NCI-H522
In short: as §1

## CCCCCCCCCCCC1=C(O)C(=O)C=C(O)C1=O [Embelin] + COc1cccc2cc(-c3nc([C@H]4CC[C@H](C(=O)O)CC4)n4ncnc(N)c34)[nH]c12 [OSI-027] (partner 0.5 µM)
NCI-H1651; first compound 0.08 µM
  relative viability: 0.749
NCI-H1651; first compound 0.8 µM
  relative viability: 0.677
NCI-H1651; first compound 2.53 µM
  relative viability: 0.801
NCI-H1651; first compound 8 µM
  relative viability: 0.776
SK-MES-1; first compound 0.08 µM
  relative viability: 0.648
SK-MES-1; first compound 0.8 µM
  relative viability: 0.66
SK-MES-1; first compound 2.53 µM
  relative viability: 0.572
SK-MES-1; first compound 8 µM
  relative viability: 0.521
NCI-H1395; first compound 0.08 µM
  relative viability: 0.657
NCI-H1395; first compound 0.8 µM
  relative viability: 0.702
NCI-H1395; first compound 2.53 µM
  relative viability: 0.615
NCI-H1395; first compound 8 µM
  relative viability: 0.549
LC-2-ad; first compound 0.08 µM
  relative viability: 0.85
LC-2-ad; first compound 0.8 µM
  relative viability: 1.02
LC-2-ad; first compound 2.53 µM
  relative viability: 0.97
LC-2-ad; first compound 8 µM
  relative viability: 0.516
PC-3 [JPC-3]; first compound 0.08 µM
  relative viability: 0.759
PC-3 [JPC-3]; first compound 0.8 µM
  relative viability: 0.752
PC-3 [JPC-3]; first compound 2.53 µM
  relative viability: 0.829
PC-3 [JPC-3]; first compound 8 µM
  relative viability: 0.867
NCI-H2342; first compound 0.08 µM
  relative viability: 0.666
NCI-H2342; first compound 0.8 µM
  relative viability: 0.59
NCI-H2342; first compound 2.53 µM
  relative viability: 0.676
NCI-H2342; first compound 8 µM
  relative viability: 0.68
NCI-H1755; first compound 0.08 µM
  relative viability: 0.829
NCI-H1755; first compound 0.8 µM
  relative viability: 0.709
NCI-H1755; first compound 2.53 µM
  relative viability: 0.634
NCI-H1755; first compound 8 µM
  relative viability: 0.691
NCI-H2228; first compound 0.08 µM
  relative viability: 0.697
NCI-H2228; first compound 0.8 µM
  relative viability: 0.673
NCI-H2228; first compound 2.53 µM
  relative viability: 0.726
NCI-H2228; first compound 8 µM
  relative viability: 0.485
NCI-H1793; first compound 0.08 µM
  relative viability: 0.281
NCI-H1793; first compound 0.8 µM
  relative viability: 0.367
NCI-H1793; first compound 2.53 µM
  relative viability: 0.237
NCI-H1793; first compound 8 µM
  relative viability: 0.243
NCI-H1437; first compound 0.08 µM
  relative viability: 0.859
NCI-H1437; first compound 0.8 µM
  relative viability: 1.01
NCI-H1437; first compound 2.53 µM
  relative viability: 0.934
NCI-H1437; first compound 8 µM
  relative viability: 0.822
EMC-BAC-2; first compound 0.08 µM
  relative viability: 0.375
EMC-BAC-2; first compound 0.8 µM
  relative viability: 0.47
EMC-BAC-2; first compound 2.53 µM
  relative viability: 0.349
EMC-BAC-2; first compound 8 µM
  relative viability: 0.353
NCI-H2347; first compound 0.08 µM
  relative viability: 0.428
NCI-H2347; first compound 0.8 µM
  relative viability: 0.468
NCI-H2347; first compound 2.53 µM
  relative viability: 0.412
NCI-H2347; first compound 8 µM
  relative viability: 0.527
EKVX; first compound 0.08 µM
  relative viability: 0.715
EKVX; first compound 0.8 µM
  relative viability: 0.677
EKVX; first compound 2.53 µM
  relative viability: 0.789
EKVX; first compound 8 µM
  relative viability: 0.743
NCI-H1944; first compound 0.08 µM
  relative viability: 0.41
NCI-H1944; first compound 0.8 µM
  relative viability: 0.462
NCI-H1944; first compound 2.53 µM
  relative viability: 0.358
NCI-H1944; first compound 8 µM
  relative viability: 0.425
NCI-H1915; first compound 0.08 µM
  relative viability: 0.679
NCI-H1915; first compound 0.8 µM
  relative viability: 0.707
NCI-H1915; first compound 2.53 µM
  relative viability: 0.602
NCI-H1915; first compound 8 µM
  relative viability: 0.653
NCI-H2087; first compound 0.08 µM
  relative viability: 0.5
NCI-H2087; first compound 0.8 µM
  relative viability: 0.543
NCI-H2087; first compound 2.53 µM
  relative viability: 0.656
NCI-H2087; first compound 8 µM
  relative viability: 0.628
LK-2; first compound 0.08 µM
  relative viability: 0.246
LK-2; first compound 0.8 µM
  relative viability: 0.226
LK-2; first compound 2.53 µM
  relative viability: 0.22
LK-2; first compound 8 µM
  relative viability: 0.194
CAL-12T; first compound 0.08 µM
  relative viability: 0.538
CAL-12T; first compound 0.8 µM
  relative viability: 0.817
CAL-12T; first compound 2.53 µM
  relative viability: 0.513
CAL-12T; first compound 8 µM
  relative viability: 0.665
LXF-289; first compound 0.08 µM
  relative viability: 0.796
LXF-289; first compound 0.8 µM
  relative viability: 0.952
LXF-289; first compound 2.53 µM
  relative viability: 0.801
LXF-289; first compound 8 µM
  relative viability: 0.873
NCI-H661; first compound 0.08 µM
  relative viability: 0.763
NCI-H661; first compound 0.8 µM
  relative viability: 0.784
NCI-H661; first compound 2.53 µM
  relative viability: 0.8
NCI-H661; first compound 8 µM
  relative viability: 0.769
NCI-H2085; first compound 0.08 µM
  relative viability: 0.743
NCI-H2085; first compound 0.8 µM
  relative viability: 0.84
NCI-H2085; first compound 2.53 µM
  relative viability: 0.699
NCI-H2085; first compound 8 µM
  relative viability: 0.646
SK-LU-1; first compound 0.08 µM
  relative viability: 0.409
SK-LU-1; first compound 0.8 µM
  relative viability: 0.373
SK-LU-1; first compound 2.53 µM
  relative viability: 0.383
SK-LU-1; first compound 8 µM
  relative viability: 0.34
COR-L 105; first compound 0.08 µM
  relative viability: 0.693
COR-L 105; first compound 0.8 µM
  relative viability: 0.836
COR-L 105; first compound 2.53 µM
  relative viability: 0.602
COR-L 105; first compound 8 µM
  relative viability: 0.621
H3255; first compound 0.08 µM
  relative viability: 0.586
H3255; first compound 0.8 µM
  relative viability: 0.628
H3255; first compound 2.53 µM
  relative viability: 0.63
H3255; first compound 8 µM
  relative viability: 0.587
NCI-H522; first compound 0.08 µM
  relative viability: 0.677
NCI-H522; first compound 0.8 µM
  relative viability: 0.714
NCI-H522; first compound 2.53 µM
  relative viability: 0.752
NCI-H522; first compound 8 µM
  relative viability: 0.641

From the supplement of paper PMC10307832
